{
  "source": "patent US11242537B2",
  "about": "“Method for improving sensitivity of plant to gibberellin inhibitor and use thereof” (CHINA AGRICULTURAL UNIVERSITY, priority 2017, dated 2022)",
  "key": {"HRP::ga1-5": {"tested_on": "HRP::ga1-5", "assay": "Effects of different concentrations of DPC on plant height (step 4.2), HRP::ga1-5", "assay_type": "in vivo, Arabidopsis thaliana", "protocol": "(§1) In the following examples, the growth conditions of Arabidopsis thaliana are: culturing in a growth chamber with a photoperiod of 16 h light/8 h dark, a light intensity of 60 μmol/m^2/s, a humidity of 60%-70%, and a temperature of 22° C.\n(§2) The experiment was repeated three times, and the specific steps of each repeated experiment were as follows:\n(§3) Seventy homozygous line plants of the HRP::ga1-1 of step 2 were randomly selected and randomly divided into seven groups, ten plants in each group. On the 33rd day of sowing (the day of sowing was recorded as the first day of sowing), the plants of these seven groups were treated as follows, respectively: one group was sprayed with water (i.e., 0 mg/L aqueous DPC solution) and cultured for 12 days to obtain untreated HRP::ga1-1; one group was sprayed with 30 mg/L aqueous DPC solution and cultured for 12 days to obtain 30 mg/L DPC-treated HRP::ga1-1; one group was sprayed with 50 mg/L aqueous DPC solution and cultured for 12 days to obtain 50 mg/L DPC-treated HRP::ga1-1; one group was sprayed with 100 mg/L aqueous DPC solution and cultured for 12 days to obtain 100 mg/L DPC-treated HRP::ga1-1; one group was sprayed with 300 mg/L aqueous DPC solution and cultured for 12 days to obtain 300 mg/L DPC-treated HRP::ga1-1; one group was sprayed with 500 mg/L aqueous DPC solution and cultured for 12 days to obtain 500 mg/L DPC-treated HRP::ga1-1; one group was sprayed with 1000 mg/L aqueous DPC solution and cultured for 12 days to obtain 1000 mg/L DPC-treated HRP::ga1-1.\nAccording to the above method, the homozygous line plant of the HRP::ga1-1 was replaced with the pure homozygous line plant of the HRP::ga1-5, and the other steps were unchanged to obtain untreated HRP::ga1-5, 30 mg/L DPC-treated HRP::ga1-5, 50 mg/L DPC-treated HRP::ga1-5, 100 mg/L DPC-treated HRP::ga1-5, 300 mg/L DPC-treated HRP::ga1-5, 500 mg/L DPC-treated HRP::ga1-5 and 1000 mg/L DPC-treated HRP::ga1-5, respectively.\n(§4) The plant heights of the differently treated Arabidopsis thaliana were measured respectively (FIG. 3), and the average plant heights are shown in Table 3."}, "ZmCPS::ga1-5": {"tested_on": "ZmCPS::ga1-5", "assay": "Effect of DPC on plant height (step 4.1), ZmCPS::ga1-5", "assay_type": "in vivo, Arabidopsis thaliana", "conditions": "for Plant height: 12 days; for Plant height reduction rate: relative to 0 mg/L", "protocol": "as §1, §2\n(§5) Thirty homozygous line plants of the HRP::ga1-1 of step 2 were randomly selected and randomly divided into three groups, ten plants in each group. On the 33rd day of sowing (the day of sowing was recorded as the first day of sowing), the plants of these three groups were treated as follows, respectively one group was sprayed with water (i.e., 0 mg/L DPC solution) and cultured for 12 days to obtain untreated HRP::ga1-1; one group was sprayed with 30 mg/L DPC solution and cultured for 12 days to obtain 30 mg/L DPC-treated HRP::ga1-1; the last group was sprayed with 500 mg/L aqueous DPC solution and cultured for 12 days to obtain 500 mg/L DPC-treated HRP::ga1-1.\n(§6) According to the above method, the homozygous line plants of the HRP::ga1-1 were replaced with the homozygous line plants of the HRP::ga1-5, the homozygous line plants of the ZmCPS::ga1-1, the homozygous line plants of the ZmCPS::ga1-5, the homozygous line plants of the PsSuper1300::ga1-1 and the homozygous line plants of the PsSuper1300::ga1-5 respectively, the other steps were unchanged, and untreated HRP::ga1-5, 30 mg/L DPC-treated HRP::ga1-5, 500 mg/L DPC-treated HRP::ga1-5, untreated ZmCPS::ga1-1, 30 mg/L DPC-treated ZmCPS::ga1-1, 500 mg/L DPC-treated ZmCPS::ga1-1, untreated ZmCPS::ga1-5, 30 mg/L DPC-treated ZmCPS::ga1-5, 500 mg/L DPC-treated ZmCPS::ga1-5, untreated PsSuper1300::ga1-1, 30 mg/L DPC-treated PsSuper1300::ga1-1, 500 mg/L DPC-treated PsSuper1300::ga1-1, untreated PsSuper1300::ga1-5, 30 mg/L DPC-treated PsSuper1300::ga1-5 and 500 mg/L DPC-treated PsSuper1300::ga1-5 were obtained, respectively.\n(§7) The plant heights of the above Arabidopsis thaliana before the treatment (FIG. 1) and after different treatments (FIG. 2 and Table 2) were measured."}, "HRP::ga1-1 [1]": {"tested_on": "HRP::ga1-1", "assay": "Effects of different concentrations of DPC on plant height (step 4.2), HRP::ga1-1", "assay_type": "in vivo, Arabidopsis thaliana", "protocol": "as §1, §2, §3, §4"}, "ZmCPS::ga1-1": {"tested_on": "ZmCPS::ga1-1", "assay": "Effect of DPC on plant height (step 4.1), ZmCPS::ga1-1", "assay_type": "in vivo, Arabidopsis thaliana", "conditions": "for Plant height: 12 days; for Plant height reduction rate: relative to 0 mg/L", "protocol": "as §1, §2, §5, §6, §7"}, "[2]": {"tested_on": "transgenic zmcps-ko line with the HRP, line No. 443", "assay": "Sensitivity of transgenic zmcps-ko line with the HRP to DPC, line No. 443", "assay_type": "in vivo, maize", "source_text": "The GV3101-pSuper1300-HRP of Example 1 was transformed into the ZmCPSKO maize embryos of step 1.1 by using the Agrobacterium to infect the maize immature embryos, and positive transgenic maize with the HRP was obtained by screening, and the transgenic maize with the HRP contained the target gene HRP. The GV3101-pSuper1300-ZmCPS and GV3101-pSuper1300 were used as controls, and the ZmCPS control maize and empty vector control maize were obtained, respectively.\n(§8) The WT and transgenic plants were sprayed with DPC during jointing stage to test their DPC sensitivity: the whole plant was sprayed with 500 ppm […] DPC when the maize was grown to 7 leaf expansion phase and 12 leaf expansion phase. Plant height and ear height were measured 2 weeks after treatment and after tasseling."}, "B73 (WT)": {"tested_on": "B73 (WT)", "assay": "Sensitivity of wild type maize B73 to DPC", "assay_type": "in vivo", "conditions": "500 ppm (5 mM) DPC spray", "protocol": "as §8"}, "maize Zhengdan 958": {"tested_on": "maize Zhengdan 958", "conditions": "1000 mg/L DPC (Chen yin, 2012); cited from earlier work"}, "HRP::ga1-1 [3]": {"tested_on": "HRP::ga1-1", "assay": "Effect of DPC on plant height of transgenic Arabidopsis thaliana (step 4.1), HRP::ga1-1", "assay_type": "in vivo", "conditions": "for Plant height reduction rate / Plant height: HRP::ga1-1; for Plant height reduction rate: relative to 0 mg/L DPC-treated plant; for Plant height: cultured 12 days", "protocol": "as §1, §2, §5, §7"}, "[4]": {"conditions": "500 mg/L DPC spray, 12 days (step 4.2)"}, "[5]": {"conditions": "line No. 443, 500 ppm (5 mM) DPC spray"}},
  "data": [
    {"smiles": "C[N+]1(C)CCCCC1.[Cl-]", "note": "[DPC, 1,1-dimethylpiperidinium chloride]", "values": [
      {"measurement": "Plant height (average)", "setting": "HRP::ga1-5; [4]", "result": 9.857, "unit": "cm"},
      {"measurement": "Plant height (average)", "setting": "HRP::ga1-5; 1000 mg/L DPC spray, 12 days", "result": 7.357, "unit": "cm"},
      {"measurement": "Plant height", "setting": "ZmCPS::ga1-5; 30 mg/L DPC spray", "result": "16.79 ± 0.13", "unit": "cm"},
      {"measurement": "Plant height reduction rate", "setting": "ZmCPS::ga1-5; 30 mg/L DPC", "result": 0.06, "unit": "%"},
      {"measurement": "Plant height", "setting": "ZmCPS::ga1-5; 500 mg/L DPC spray", "result": "16.66 ± 0.31", "unit": "cm"},
      {"measurement": "Plant height reduction rate", "setting": "ZmCPS::ga1-5; 500 mg/L DPC", "result": 0.83, "unit": "%"},
      {"measurement": "Effect of DPC on plant height (in words)", "setting": "ZmCPS::ga1-5; 30 and 500 mg/L DPC", "result": "no effect"},
      {"measurement": "Plant height (average)", "setting": "HRP::ga1-1 [1]; 30 mg/L DPC spray, 12 days (step 4.2)", "result": 9.714, "unit": "cm"},
      {"measurement": "Plant height (average)", "setting": "HRP::ga1-1 [1]; 50 mg/L DPC spray, 12 days", "result": 9.314, "unit": "cm"},
      {"measurement": "Plant height (average)", "setting": "HRP::ga1-1 [1]; 100 mg/L DPC spray, 12 days", "result": 9.343, "unit": "cm"},
      {"measurement": "Plant height (average)", "setting": "HRP::ga1-1 [1]; 300 mg/L DPC spray, 12 days", "result": 8.857, "unit": "cm"},
      {"measurement": "Plant height (average)", "setting": "HRP::ga1-1 [1]; [4]", "result": 8.586, "unit": "cm"},
      {"measurement": "Plant height (average)", "setting": "HRP::ga1-1 [1]; 1000 mg/L DPC spray, 12 days", "result": 7.243, "unit": "cm"},
      {"measurement": "Plant height", "setting": "ZmCPS::ga1-1; 30 mg/L DPC spray", "result": "16.52 ± 0.31", "unit": "cm"},
      {"measurement": "Plant height reduction rate", "setting": "ZmCPS::ga1-1; 30 mg/L DPC", "result": "−0.12", "unit": "%"},
      {"measurement": "Plant height", "setting": "ZmCPS::ga1-1; 500 mg/L DPC spray", "result": "16.45 ± 0.21", "unit": "cm"},
      {"measurement": "Plant height reduction rate", "setting": "ZmCPS::ga1-1; 500 mg/L DPC", "result": 0.30, "unit": "%"},
      {"measurement": "Effect of DPC on plant height (in words)", "setting": "ZmCPS::ga1-1; 30 and 500 mg/L DPC", "result": "no effect"},
      {"measurement": "Sensitivity of the plant to DPC (in words)", "setting": "[2]; complementary plant, line No. 443 (FIG. 5), 500 ppm (5 mM) DPC spray", "result": "sensitive"},
      {"measurement": "Ear height", "setting": "[2]; [5]", "result": 80.0},
      {"measurement": "Plant height at tasseling stage", "setting": "[2]; [5]", "result": 187.9},
      {"measurement": "Plant height at 2 weeks after treatment", "setting": "[2]; line No. 443, whole plant sprayed with 500 ppm (5 mM) DPC at 7 and 12 leaf expansion phase", "result": 128.9},
      {"measurement": "Ear height", "setting": "B73 (WT); B73 wild type", "result": 91.3},
      {"measurement": "Plant height at 2 weeks after treatment", "setting": "B73 (WT); B73 wild type", "result": 151},
      {"measurement": "Plant height at tasseling stage", "setting": "B73 (WT); B73 wild type", "result": 207.5},
      {"measurement": "Sensitivity of the plant to DPC (in words)", "setting": "B73 (WT); WT (B73)", "result": "insensitive"},
      {"measurement": "Plant height and stem diameter compared with control", "setting": "maize Zhengdan 958", "result": "no significant difference"},
      {"measurement": "Plant height of HRP::ga1-1 as multiple of correspondingly treated ZmCPS::ga1-1", "setting": "HRP::ga1-1 [3]; 30 mg/L DPC", "result": 0.68, "unit": "times"},
      {"measurement": "Plant height of HRP::ga1-1 as multiple of correspondingly treated ga1-1", "setting": "HRP::ga1-1 [3]; 30 mg/L DPC", "result": 2.71, "unit": "times"},
      {"measurement": "Plant height reduction rate of HRP::ga1-1 as multiple of that of ga1-1", "setting": "HRP::ga1-1 [3]; 30 mg/L DPC", "result": 2.49, "unit": "times"},
      {"measurement": "Plant height of HRP::ga1-1 as multiple of correspondingly treated ZmCPS::ga1-1", "setting": "HRP::ga1-1 [3]; 500 mg/L DPC", "result": 0.41, "unit": "times"},
      {"measurement": "Plant height of HRP::ga1-1 as multiple of correspondingly treated ga1-1", "setting": "HRP::ga1-1 [3]; 500 mg/L DPC", "result": 1.71, "unit": "times"},
      {"measurement": "Plant height reduction rate of HRP::ga1-1 as multiple of that of ga1-1", "setting": "HRP::ga1-1 [3]; 500 mg/L DPC", "result": 3.47, "unit": "times"},
      {"measurement": "Plant height reduction rate", "setting": "HRP::ga1-1 [3]; 30 mg/L DPC", "result": 33.92, "unit": "%"},
      {"measurement": "Plant height reduction rate", "setting": "HRP::ga1-1 [3]; 500 mg/L DPC", "result": 60.18, "unit": "%"},
      {"measurement": "Plant height", "setting": "HRP::ga1-1 [3]; sprayed with 30 mg/L DPC on 33rd day of sowing", "result": "11.2 ± 0.24", "unit": "cm"},
      {"measurement": "Plant height", "setting": "HRP::ga1-1 [3]; sprayed with 500 mg/L DPC on 33rd day of sowing", "result": "6.75 ± 0.38", "unit": "cm"}
    ]}
  ]
}
